{
  "source": "patent US20240000868A1",
  "about": "“Composition Containing Bifidobacterium Lactis and Human Milk Oligosaccharides and Application Thereof” (Inner Mongolia Yili Industrial Group Co., Ltd., priority 2020, published 2024)",
  "tested_on": "Staphylococcus aureus ATCC25923",
  "assay": "Disc diffusion test of inhibition zone",
  "format": "cell-based",
  "conditions": "HN019 1×10^8 CFU; gentamicin 200 μg/mL; 37° C., 18 hours",
  "procedure": "Discs were prepared with sterile filter paper, the test substances HMO (10 mg/mL, 30 mg/mL) or probiotic (1×10^8 CFU) were introduced thereto, and the discs were dried overnight under sterile conditions. Staphylococcus aureus ATCC25923 (1.0×10^6 CFU/mL) was uniformly applied on the surface of an NGM agar plate, and then the discs were placed on the surface of the inoculated agar plate. Gentamicin (200 μg/mL) was used as a positive control. All plates were incubated at 37° C. for 18 hours.",
  "data": [
    {"substance": "Gentamicin", "values": [
      {"measurement": "transparent inhibition zone around disc (direct antibacterial effect)", "result": "formation of a transparent inhibition zone"}
    ]}
  ]
}
